# Measured values as given in publication PMC6204601, “In Vivo Selectivity and Localization of Reactive Oxygen Species (ROS) Induction by Osmium Anticancer Complexes That Circumvent Platinum Resistance” (Journal of Medicinal Chemistry, 2018).
# Read-outs that look alike come from different tables or passages of the source.
# Columns and labels:
# [1] = tested on: HOF human ovarian fibroblasts; experiment: ROS/superoxide detection by flow cytometry, HOF; details: 24 h, 1.0 × IC50 (pyocyanin positive control 0.1 mM); for % Population Q2 FL1-H+ / FL2-H+: ROS and superoxide; for % Population Q1 FL1-H- / FL2-H+: superoxide only; for % Population Q3 FL1-H+ / FL2-H-: total ROS only
# Procedure: (§7) Reactive oxygen species (ROS) determination using flow cytometry. The generation of ROS and
# (§8) superoxide in A2780 ovarian cancer cells was evaluated using the ROS/Superoxide detection kit (Enzo
# (§9) Life Sciences) following the manufacturer’s protocol.
# (§10) cells per well, and incubated for 24 h (310 K). After this time, cells were exposed to equipotent
# The pellets were re-suspended in 500
# (§11) μL PBS and stained with green fluorescent reagent for total ROS reading in the FL1-green channel (2
# (§12) μL) and orange fluorescent reagent for superoxide reading in the FL2-red channel (2 μL). Positive
# (§13) control samples were treated with pyocyanin (5 μL, 30 min). Single stained positive control samples
# (§14) were used for compensation purposes. Data were obtained using a Becton Dickson FACScan Flow
# (§15) Cytometer and processed using FlowJo V10 for Windows.
# A2780 cancer cells = experiment: ROS/superoxide detection by flow cytometry, A2780; details: A2780, 24 h, 1.0 × IC50 (pyocyanin positive control 0.1 mM); for % Population Q2 FL1-H+ / FL2-H+: ROS and superoxide; for % Population Q1 FL1-H- / FL2-H+: superoxide only; for % Population Q3 FL1-H+ / FL2-H-: total ROS only
# Procedure: as §7, §8, §9, §10
# The pellets were re-suspended in 500
# as §11, §12, §13, §14, §15
# [2] = tested on: HCT116 colorectal carcinoma cells; experiment: Sulforhodamine B antiproliferative assay, HCT116; format: cell-based, human; details: 24 h drug exposure + 72 h recovery, SRB; read-out: Antiproliferative activity (IC50) HCT116 Colon
# [3] = tested on: MRC5 human lung fibroblasts; experiment: Sulforhodamine B antiproliferative assay, MRC5; format: cell-based; details: 24 h drug exposure + 72 h recovery, SRB; non-cancer fibroblasts
# Procedure: (§1) In vitro biological studies
# (§2) Sulforhodamine B cell viability colorimetric assay.
# (§3) by ICP-OES analysis for metal content).
# (§4) 72 h recovery time (310 K).
# (§5) using slowly-running tap water and air dried.
# (§6) Data were processed using Microsoft Excel
# IC50 values (concentrations at which […]
# After this time, cells were […]
# [4] = tested on: A549 lung carcinoma cells; experiment: Sulforhodamine B antiproliferative assay, A549; format: cell-based, human; details: 24 h drug exposure + 72 h recovery, SRB
# [5] = tested on: HCT116p21-/- P21-knockout colorectal carcinoma cells; experiment: Sulforhodamine B antiproliferative assay, HCT116p21-/-; format: cell-based, human; details: 24 h drug exposure + 72 h recovery, SRB, read-out: Antiproliferative activity (IC50) HCT116p21-/- Colon
# [6] = tested on: HOF human ovarian fibroblasts; experiment: Sulforhodamine B antiproliferative assay, HOF; format: cell-based; details: 24 h drug exposure + 72 h recovery, SRB; non-cancer fibroblasts
# Procedure: as §1, §2, §3, §4, §5, §6
# [7] = tested on: HCT116p53-/- P53-knockout colorectal carcinoma cells; experiment: Sulforhodamine B antiproliferative assay, HCT116p53-/-; format: cell-based, human; details: 24 h drug exposure + 72 h recovery, SRB, read-out: Antiproliferative activity (IC50) HCT116p53-/- Colon
# [8] = tested on: A2780 ovarian carcinoma cells; experiment: Sulforhodamine B antiproliferative assay, A2780; format: cell-based, human; details: SRB
# [9] = tested on: Singapore wild-type zebrafish embryos; format: in vivo, Danio rerio; details: zebrafish embryos, 96 h exposure; read-out: LC50 (Danio rerio) SG-WT
# Procedure: In vivo biological studies […]
# wild-type zebrafish (SGWT) embryos (< 5 dpf). All animals were maintained in accordance with ASPA […]
# maintained. Light cycle: 14 hours day, 10 hours night.
# 1 L breeding tank. Pairs were set up the previous evening. Males and females were separated by a divider. The divider was removed around 9am (dawn). Embryos were collected and placed into petri dishes with fresh egg water. […]
# [10] = tested on: A2780Cis cisplatin-resistant ovarian carcinoma cells; experiment: Sulforhodamine B antiproliferative assay, A2780Cis; format: cell-based, human; details: 24 h drug exposure + 72 h recovery, SRB
# [11] = tested on: HCT116Ox oxaliplatin-resistant colorectal carcinoma cells; experiment: Sulforhodamine B antiproliferative assay, HCT116Ox; format: cell-based, human; details: 24 h drug exposure + 72 h recovery, SRB, read-out: Antiproliferative activity (IC50) HCT116Ox Colon
# [12] = tested on: AB wild-type zebrafish embryos; format: in vivo; details: 96 h exposure, read-out: LC50 (Danio rerio) AB-WT
# [13] = tested on: Tubingen wild-type zebrafish embryos; experiment: Zebrafish embryo toxicity (FET) test, TU-WT; format: in vivo; details: 96 h exposure, read-out: LC50 (Danio rerio) TU-WT
# [14] = 24 h drug exposure + 72 h recovery in drug-free medium, read-out: Antiproliferative activity (IC50) A2780 Ovarian
compound,measurement,setting,value
"Cn1c2cccc(=O)c-2nc2ccccc21 [Pyocyanin, pyocyanin, reference compound]",% Population Q4 FL1-H- / FL2-H-,[1],1.2 ± 0.5%
same,% Population Q2 FL1-H+ / FL2-H+,[1],90 ± 2%
same,% Population Q1 FL1-H- / FL2-H+,[1],8 ± 2%
same,% Population Q3 FL1-H+ / FL2-H-,[1],1.2 ± 0.2%
same,% Population Q4 FL1-H- / FL2-H-,A2780 cancer cells,0.02 ± 0.01%
same,% Population Q2 FL1-H+ / FL2-H+,A2780 cancer cells,99 ± 2%
same,% Population Q1 FL1-H- / FL2-H+,A2780 cancer cells,0.03 ± 0.02%
same,% Population Q3 FL1-H+ / FL2-H-,A2780 cancer cells,0.00 ± 0.01%
"CN(C)c1ccc(N=Nc2ccccn2)cc1.Cc1ccc(C(C)C)cc1.F[P-](F)(F)(F)(F)F.[Cl][Os+] [Complex 9, [Os(Azpy-NMe2)(p-cymene)Cl]PF6]",IC50,[2],21.9 ± 0.7 µM
same,IC50,[3],7.1 ± 0.2 µM
same,IC50,[4],36.6 ± 0.8 µM
same,IC50,[5],4 ± 0.3 µM
same,% Population Q4 FL1-H- / FL2-H-,[1],15 ± 1%
same,% Population Q2 FL1-H+ / FL2-H+,[1],13.8 ± 0.1%
same,% Population Q1 FL1-H- / FL2-H+,[1],11.7 ± 0.8%
same,% Population Q3 FL1-H+ / FL2-H-,[1],60 ± 2%
same,% Population Q4 FL1-H- / FL2-H-,A2780 cancer cells,0 ± 0%
same,% Population Q2 FL1-H+ / FL2-H+,A2780 cancer cells,97.0 ± 0.2%
same,% Population Q1 FL1-H- / FL2-H+,A2780 cancer cells,0 ± 0%
same,% Population Q3 FL1-H+ / FL2-H-,A2780 cancer cells,3.0 ± 0.2%
same,IC50,[6],11.1 ± 0.9 µM
same,IC50,[7],3.2 ± 0.3 µM
same,IC50,[8]; [14],1800 ± 100 nM
same,LC50,[9],13.61 ± 0.09 µM
same,IC50,[10],0.37 ± 0.03 µM
same,IC50,[11],5.8 ± 0.7 µM
same,LC50,[12],14 ± 2 µM
same,LC50,[13],12 ± 1 µM
"Cc1ccc(C(C)C)cc1.O=S(=O)(c1ccc(F)cc1)[N]1[Os][NH][C@H](c2ccccc2)[C@H]1c1ccccc1 [Complex 4, [Os(p-cymene)(Fb-DPEN)]]",IC50,[2],49 ± 3 µM
same,IC50,[3],35 ± 1 µM
same,IC50,[4],31.5 ± 0.4 µM
same,IC50,[5],70 ± 3 µM
same,IC50,[6],48 ± 3 µM
same,IC50,[7],39.4 ± 0.6 µM
same,IC50,[8]; [14],17000 ± 1000 nM
same,LC50,[9],0.7 ± 0.2 µM
same,IC50,[10],15 ± 2 µM
same,IC50,[11],54 ± 2 µM
same,LC50,[12],3 ± 0.5 µM
same,LC50,[13],1.5 ± 0.3 µM
"CN(C)c1ccc(N=Nc2ccccn2)cc1.F[P-](F)(F)(F)(F)F.[Cl][Os+].c1ccc(-c2ccccc2)cc1 [Complex 11, [Os(Azpy-NMe2)(biphenyl)Cl]PF6]",IC50,[2],7.2 ± 0.05 µM
same,IC50,[3],16.9 ± 0.1 µM
same,IC50,[4],20 ± 1 µM
same,IC50,[5],67 ± 3 µM
same,IC50,[6],27 ± 2 µM
same,IC50,[7],28 ± 1 µM
same,IC50,[8]; [14],3900 ± 300 nM
same,LC50,[9],16.8 ± 0.8 µM
same,IC50,[10],16.8 ± 0.2 µM
same,IC50,[11],10 ± 0.9 µM
same,LC50,[12],12 ± 1 µM
same,LC50,[13],15.8 ± 0.9 µM
"Cc1ccc(S(=O)(=O)[N]2[Os][NH][C@H](c3ccccc3)[C@H]2c2ccccc2)cc1.c1ccc(-c2ccccc2)cc1 [Complex 7, [Os(biphenyl)(Ts-DPEN)]]",IC50,[2],26.1 ± 0.3 µM
same,IC50,[3],15.1 ± 0.5 µM
same,IC50,[4],22.4 ± 0.7 µM
same,IC50,[5],90 ± 1 µM
same,IC50,[6],44 ± 1 µM
same,IC50,[7],40 ± 6 µM
same,IC50,[8]; [14],6500 ± 300 nM
same,IC50,[10],25.9 ± 0.7 µM
same,IC50,[11],46.2 ± 0.7 µM
same,LC50,[12],3.5 ± 0.8 µM
same,LC50,[13],3.3 ± 0.4 µM
"N.N.[Cl][Pt][Cl] [cisplatin, reference compound]",IC50,[2],5.1 ± 0.3 µM
same,IC50,[3],13.5 ± 0.9 µM
same,IC50,[4],3.2 ± 0.1 µM
same,IC50,[5],9.2 ± 0.5 µM
same,IC50,[7],36.7 µM
same,IC50,[8]; [14],1200 nM
same,IC50,[10],11.5 ± 0.2 µM
same,IC50,[11],23.4 ± 0.4 µM
"F[P-](F)(F)(F)(F)F.Oc1ccc(N=Nc2ccccn2)cc1.[I][Os+].c1ccc(-c2ccccc2)cc1 [Complex 13, [Os(Azpy-OH)(biphenyl)I]PF6]",IC50,[2],0.15 ± 0.01 µM
same,IC50,[3],0.22 ± 0.01 µM
same,IC50,[4],0.52 ± 0.06 µM
same,IC50,[5],0.3 ± 0.01 µM
same,IC50,[6],0.32 ± 0.09 µM
same,IC50,[7],0.13 ± 0.01 µM
same,IC50,"[8]; 24 h drug exposure + 72 h recovery, value in nM, read-out: IC50 in A2780",140 nM
same,LC50,[9],8 ± 0.1 µM
same,IC50,[10],0.13 ± 0.02 µM
same,IC50,[11],0.14 ± 0.01 µM
same,LC50,[12],7.4 ± 0.2 µM
same,LC50,[13],7.2 ± 0.2 µM
"Cc1ccc(C(C)C)cc1.[NH-]C(c1ccccc1)C([N-]S(=O)(=O)c1ccc([N+](=O)[O-])cc1)c1ccccc1.[Os+2] (centres unmarked) [Complex 3, [Os(p-cymene)(Ns-DPEN)]]",IC50,[2],67 ± 1 µM
same,IC50,[3],21.9 ± 0.7 µM
same,IC50,[4],27 ± 2 µM
same,IC50,[5],63 ± 4 µM
same,IC50,[6],> 50 µM
same,IC50,[7],53 ± 3 µM
same,IC50,[8]; [14],19900 ± 500 nM
same,LC50,[9],1.9 ± 0.3 µM
same,IC50,[10],21.1 ± 0.3 µM
same,IC50,[11],64 ± 5 µM
same,LC50,[12],3.9 ± 0.3 µM
"CS(=O)(=O)[N]1[Os][NH][C@H](c2ccccc2)[C@H]1c1ccccc1.Cc1ccc(C(C)C)cc1 [Complex 2, [Os(p-cymene)(Ms-DPEN)]]",IC50,[2],67 ± 1 µM
same,IC50,[3],26 ± 0.4 µM
same,IC50,[4],31 ± 1 µM
same,IC50,[5],71 ± 5 µM
same,IC50,[6],> 50 µM
same,IC50,[7],56 ± 6 µM
same,IC50,[8]; [14],30000 ± 2000 nM
same,LC50,[9],3.5 ± 0.4 µM
same,IC50,[10],39.4 ± 0.6 µM
same,IC50,[11],56 ± 5 µM
same,LC50,[12],2.8 ± 0.6 µM
same,LC50,[13],2.8 ± 0.5 µM
"Cc1ccc(C(C)C)cc1.O=S(=O)(c1ccccc1)[N]1[Os][NH][C@H](c2ccccc2)[C@H]1c1ccccc1 [Complex 5, [Os(p-cymene)(Bs-DPEN)]]",IC50,[2],49 ± 6 µM
same,IC50,[3],31.3 ± 0.2 µM
same,IC50,[4],26.3 ± 0.5 µM
same,IC50,[5],54.3 ± 0.9 µM
same,IC50,[6],19.9 ± 0.9 µM
same,IC50,[7],48 ± 2 µM
same,IC50,[8]; [14],13500 ± 900 nM
same,LC50,[9],0.8 ± 0.2 µM
same,IC50,[10],21 ± 1 µM
same,IC50,[11],52 ± 0.8 µM
same,LC50,[13],1.5 ± 0.3 µM
"N.N.O=C([O-])C1(C(=O)[O-])CCC1.[Pt+2] [carboplatin, reference compound]",LC50,[9],5.7 ± 0.9 µM
same,LC50,[12],10 ± 1 µM
same,LC50,[13],7.1 ± 0.7 µM
"Cc1ccc(S(=O)(=O)[N]2[Os][NH][C@H](c3ccccc3)[C@H]2c2ccccc2)cc1.c1ccc(-c2cccc(-c3ccccc3)c2)cc1 [Complex 8, [Os(terphenyl)(Ts-DPEN)]]",IC50,[2],41.2 ± 0.7 µM
same,IC50,[3],9.7 ± 0.2 µM
same,IC50,[4],25.5 ± 0.3 µM
same,IC50,[6],24.3 ± 0.4 µM
same,IC50,[8]; [14],4400 ± 300 nM
same,LC50,[9],0.7 ± 0.2 µM
same,IC50,[10],10.4 ± 0.5 µM
[Os(p-cymene)(SRB-DPEN)] [Complex 6],IC50,[2],40.6 ± 0.1 µM
same,IC50,[4],16.8 ± 0.2 µM
same,IC50,[5],43 ± 3 µM
same,IC50,[7],34 ± 3 µM
same,IC50,[8]; [14],18000 ± 3000 nM
same,IC50,[10],27.2 ± 0.4 µM
same,IC50,[11],35 ± 1 µM
